Peptide text beside a SMILES is read from it. * marks the point of attachment. X1 = CCCCCCCCCCCCCCCC(=O)OCC(C*)OC(=O)CCCCCCCCCCCCCCC
Conditions: mouse, in vivo

CCCCCCCCCCCCCCCC(=O)OCC(CSC[C@H](N)C(=O)N[C@@H](CO)C(=O)N[C@@H](CCCCN)C(=O)N[C@@H](CCCCN)C(=O)N[C@@H](CCCCN)C(=O)N[C@@H](CCCCN)C(=O)O)OC(=O)CCCCCCCCCCCCCCC (some centres unmarked) [Pam2Cys-SK4, dipalmitoyl-S-glyceryl cysteine-serine-(lysine)4, reference compound] (H-C(X1)SKKKK-OH)
weight loss relative to baseline: little or no weight loss

CCCCCCCCCCCCCCCC(=O)OCC(CSC[C@H](N)C(=O)N[C@@H](CO)C(=O)N[C@@H](CO)C(=O)NCCOCCOCCOCCOCCOCCOCCOCCOCCOCCOCCOCCOCCC(=O)NCC(N)=O)OC(=O)CCCCCCCCCCCCCCC (some centres unmarked) [INNA-003, PEG-S—S-Pam2Cys]
highest weight loss: 4.67%±2.12%
